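Grown in 96-well plates, cells were treated for 48 hours with each compound at five concentrations. Insufficient inhibition: endpoint recorded as highest concentration tested. The concentration for 50% growth inhibition is given as GI50. TGI is the concentration that stops growth completely.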
What was measured:
Experiment in all cases: growth of human tumour cells (NCI), 48 h
RXF 393 renal = test system: RXF 393 renal
KM12 colon = test system: KM12 colon
HCT-116 colon = test system: HCT-116 colon
BT-549 breast = test system: BT-549 breast
SK-MEL-2 melanoma = test system: SK-MEL-2 melanoma
IGROV1 ovarian = test system: IGROV1 ovarian
M14 melanoma = test system: M14 melanoma
HOP-62 NSCLC = test system: HOP-62 NSCLC
RPMI-8226 leukemia = test system: RPMI-8226 leukemia
NCI-H460 lung = test system: NCI-H460 lung
MCF7 breast = test system: MCF7 breast
786-0 renal = test system: 786-0 renal
TK-10 renal = test system: TK-10 renal
SNB-75 CNS = test system: SNB-75 CNS
K-562 leukemia = test system: K-562 leukemia
SN12C renal = test system: SN12C renal
SR leukemia = test system: SR leukemia
A549 NSCLC = test system: A549 NSCLC
MDA-MB-231 breast = test system: MDA-MB-231 breast
SNB-19 CNS = test system: SNB-19 CNS
DU-145 prostate = test system: DU-145 prostate
CCRF-CEM leukemia = test system: CCRF-CEM leukemia
A498 renal = test system: A498 renal
SK-OV-3 ovarian = test system: SK-OV-3 ovarian
SK-MEL-28 melanoma = test system: SK-MEL-28 melanoma
EKVX NSCLC = test system: EKVX NSCLC
HL-60(TB) leukemia = test system: HL-60(TB) leukemia
PC-3 prostate = test system: PC-3 prostate
NCI-H226 lung = test system: NCI-H226 lung
NCI/ADR-RES ovarian = test system: NCI/ADR-RES ovarian
U251 CNS = test system: U251 CNS
HCC-2998 colon = test system: HCC-2998 colon
NCI-H522 lung = test system: NCI-H522 lung
UACC-62 melanoma = test system: UACC-62 melanoma
NCI-H23 lung = test system: NCI-H23 lung
MOLT-4 leukemia = test system: MOLT-4 leukemia
SW-620 colon = test system: SW-620 colon
HT29 colon = test system: HT29 colon
SF-295 CNS = test system: SF-295 CNS
HS 578T breast = test system: HS 578T breast
OVCAR-8 ovarian = test system: OVCAR-8 ovarian
CAKI-1 renal = test system: CAKI-1 renal
OVCAR-5 ovarian = test system: OVCAR-5 ovarian
T-47D breast = test system: T-47D breast
SF-539 CNS = test system: SF-539 CNS
HCT-15 colon = test system: HCT-15 colon
COLO 205 colon = test system: COLO 205 colon
UACC-257 melanoma = test system: UACC-257 melanoma
HOP-92 NSCLC = test system: HOP-92 NSCLC
OVCAR-4 ovarian = test system: OVCAR-4 ovarian
MALME-3M melanoma = test system: MALME-3M melanoma
UO-31 renal = test system: UO-31 renal
SF-268 CNS = test system: SF-268 CNS
SK-MEL-5 melanoma = test system: SK-MEL-5 melanoma
ACHN renal = test system: ACHN renal
MDA-MB-435 = test system: MDA-MB-435
LOX IMVI melanoma = test system: LOX IMVI melanoma

`O=C(Nc1ccc(F)cc1)c1cc(-c2ccc(F)cc2F)ccc1O` showed a GI50 (RXF 393 renal) of 2.75 µM, a TGI (RXF 393 renal) of 8.04 µM and a GI50 (KM12 colon) of 3.03 µM. The TGI (KM12 colon) was 9.93 µM, the GI50 (HCT-116 colon) was 2.81 µM and the TGI (HCT-116 colon) was 12.6 µM. The GI50 (BT-549 breast) was 2.78 µM, the TGI (BT-549 breast) was 18.6 µM and the GI50 (SK-MEL-2 melanoma) was 1.86 µM. The TGI (SK-MEL-2 melanoma) was 5.57 µM, the GI50 (IGROV1 ovarian) was 3.45 µM and the TGI (IGROV1 ovarian) was greater than 100 µM. For the same molecule, the GI50 (M14 melanoma) was 3.32 µM, the TGI (M14 melanoma) was greater than 100 µM and the GI50 (HOP-62 NSCLC) was 3.13 µM. The TGI (HOP-62 NSCLC) was 17.1 µM, the GI50 (RPMI-8226 leukemia) was 1.74 µM and the TGI (RPMI-8226 leukemia) was 6.38 µM. It also gave a GI50 (NCI-H460 lung) of 2.98 µM, a TGI (NCI-H460 lung) of 12.8 µM and a GI50 (MCF7 breast) of 2.31 µM. It also gave a TGI (MCF7 breast) of 10.1 µM, a GI50 (786-0 renal) of 3.31 µM and a TGI (786-0 renal) of 16.7 µM. The GI50 (TK-10 renal) was 2.91 µM, the TGI (TK-10 renal) was 23.2 µM and the GI50 (SNB-75 CNS) was 1.84 µM. The TGI (SNB-75 CNS) was 5.55 µM, the GI50 (K-562 leukemia) was 2.81 µM and the TGI (K-562 leukemia) was greater than 100 µM. The GI50 (SN12C renal) was 2.36 µM, the TGI (SN12C renal) was 8.3 µM and the GI50 (SR leukemia) was 2.93 µM. It also gave a TGI (SR leukemia) of 80.3 µM, a GI50 (A549 NSCLC) of 3.25 µM and a TGI (A549 NSCLC) greater than 100 µM. For the same molecule, the GI50 (MDA-MB-231 breast) was 2.38 µM, the TGI (MDA-MB-231 breast) was 6.47 µM and the GI50 (SNB-19 CNS) was 3.36 µM. For the same molecule, the TGI (SNB-19 CNS) was 31.9 µM, the GI50 (DU-145 prostate) was 3.33 µM and the TGI (DU-145 prostate) was greater than 100 µM. For the same molecule, the GI50 (CCRF-CEM leukemia) was 3.29 µM, the TGI (CCRF-CEM leukemia) was greater than 100 µM and the GI50 (A498 renal) was 1.47 µM. It also gave a TGI (A498 renal) of 4.13 µM, a GI50 (SK-OV-3 ovarian) of 2.65 µM and a TGI (SK-OV-3 ovarian) of 8.99 µM. The GI50 (SK-MEL-28 melanoma) was 2.9 µM, the TGI (SK-MEL-28 melanoma) was greater than 100 µM and the GI50 (EKVX NSCLC) was 2.61 µM. It also gave a TGI (EKVX NSCLC) of 9.17 µM, a GI50 (HL-60(TB) leukemia) of 1.93 µM and a TGI (HL-60(TB) leukemia) of 5.04 µM. For the same molecule, the GI50 (PC-3 prostate) was 2.78 µM, the TGI (PC-3 prostate) was 19.8 µM and the GI50 (NCI-H226 lung) was 2.88 µM. For the same molecule, the TGI (NCI-H226 lung) was 9.82 µM, the GI50 (NCI/ADR-RES ovarian) was 2.49 µM and the TGI (NCI/ADR-RES ovarian) was 8.51 µM. It also gave a GI50 (U251 CNS) of 3.23 µM, a TGI (U251 CNS) of 24.6 µM and a GI50 (HCC-2998 colon) of 3.12 µM. The TGI (HCC-2998 colon) was 42.8 µM, the GI50 (NCI-H522 lung) was 1.83 µM and the TGI (NCI-H522 lung) was 8.3 µM. The GI50 (UACC-62 melanoma) was 1.39 µM, the TGI (UACC-62 melanoma) was 4.61 µM and the GI50 (NCI-H23 lung) was 2.47 µM. The TGI (NCI-H23 lung) was 7.78 µM, the GI50 (MOLT-4 leukemia) was 2.57 µM and the TGI (MOLT-4 leukemia) was 7.9 µM. For the same molecule, the GI50 (SW-620 colon) was 3.4 µM, the TGI (SW-620 colon) was greater than 100 µM and the GI50 (HT29 colon) was 12.7 µM. The TGI (HT29 colon) was greater than 100 µM, the GI50 (SF-295 CNS) was 2.44 µM and the TGI (SF-295 CNS) was 7.55 µM. The GI50 (HS 578T breast) was 2.79 µM, the TGI (HS 578T breast) was 9.62 µM and the GI50 (OVCAR-8 ovarian) was 3.2 µM. It also gave a TGI (OVCAR-8 ovarian) greater than 100 µM, a GI50 (CAKI-1 renal) of 1.95 µM and a TGI (CAKI-1 renal) of 6 µM. For the same molecule, the GI50 (OVCAR-5 ovarian) was 3.37 µM, the TGI (OVCAR-5 ovarian) was 37.8 µM and the GI50 (T-47D breast) was 1.75 µM. The TGI (T-47D breast) was 8.14 µM, the GI50 (SF-539 CNS) was 3.65 µM and the TGI (SF-539 CNS) was 18.5 µM. The GI50 (HCT-15 colon) was 2.89 µM, the TGI (HCT-15 colon) was 13 µM and the GI50 (COLO 205 colon) was 17.1 µM. It also gave a TGI (COLO 205 colon) of 50.1 µM, a GI50 (UACC-257 melanoma) of 1.61 µM and a TGI (UACC-257 melanoma) of 6.97 µM. It also gave a GI50 (HOP-92 NSCLC) of 1.47 µM, a TGI (HOP-92 NSCLC) of 5.24 µM and a GI50 (OVCAR-4 ovarian) of 2.74 µM. The TGI (OVCAR-4 ovarian) was 45.5 µM, the GI50 (MALME-3M melanoma) was 1.92 µM and the TGI (MALME-3M melanoma) was 5.64 µM. The GI50 (UO-31 renal) was 2.11 µM, the TGI (UO-31 renal) was 8.67 µM and the GI50 (SF-268 CNS) was 2.67 µM. The TGI (SF-268 CNS) was greater than 100 µM, the GI50 (SK-MEL-5 melanoma) was 1.56 µM and the TGI (SK-MEL-5 melanoma) was 3.63 µM. The GI50 (ACHN renal) was 2.77 µM and the TGI (ACHN renal) was 8.51 µM.
In the case of `IP(CCCCCCCCCCSc1n(Cc2ccc3ccccc3c2)c(-c2ccccc2)c(-c2ccccc2)[n+]1Cc1ccc2ccccc2c1)(c1ccccc1)(c1ccccc1)c1ccccc1`, the GI50 (RPMI-8226 leukemia) is reported as 0.337 µM, the TGI (RPMI-8226 leukemia) is reported as 1.5 µM and the GI50 (SNB-75 CNS) is reported as 0.389 µM. It also gave a TGI (SNB-75 CNS) of 1.89 µM, a GI50 (K-562 leukemia) of 0.411 µM and a TGI (K-562 leukemia) of 1.84 µM. It also gave a GI50 (SN12C renal) of 0.399 µM, a TGI (SN12C renal) of 1.54 µM and a GI50 (SR leukemia) of 0.347 µM. For the same molecule, the TGI (SR leukemia) was 1.72 µM, the GI50 (MDA-MB-231 breast) was 0.318 µM and the TGI (MDA-MB-231 breast) was 1.26 µM. It also gave a GI50 (DU-145 prostate) of 0.748 µM, a TGI (DU-145 prostate) of 2.19 µM and a GI50 (CCRF-CEM leukemia) of 0.489 µM. It also gave a TGI (CCRF-CEM leukemia) of 1.95 µM, a GI50 (A498 renal) of 1.35 µM and a TGI (A498 renal) of 3.02 µM. It also gave a GI50 (SK-OV-3 ovarian) of 0.714 µM, a TGI (SK-OV-3 ovarian) of 2.17 µM and a GI50 (MDA-MB-435) of 0.403 µM. For the same molecule, the TGI (MDA-MB-435) was 1.59 µM, the GI50 (SK-MEL-28 melanoma) was 0.764 µM and the TGI (SK-MEL-28 melanoma) was 2.14 µM. It also gave a GI50 (LOX IMVI melanoma) of 0.553 µM, a TGI (LOX IMVI melanoma) of 1.82 µM and a GI50 (HL-60(TB) leukemia) of 0.189 µM. It also gave a TGI (HL-60(TB) leukemia) of 0.438 µM, a GI50 (PC-3 prostate) of 0.415 µM and a TGI (PC-3 prostate) of 1.73 µM. It also gave a GI50 (NCI/ADR-RES ovarian) of 3.94 µM, a TGI (NCI/ADR-RES ovarian) of 23.6 µM and a GI50 (HCC-2998 colon) of 0.531 µM. For the same molecule, the TGI (HCC-2998 colon) was 1.92 µM, the GI50 (UACC-62 melanoma) was 0.562 µM and the TGI (UACC-62 melanoma) was 2.02 µM. For the same molecule, the GI50 (NCI-H23 lung) was 0.322 µM, the TGI (NCI-H23 lung) was 1.32 µM and the GI50 (MOLT-4 leukemia) was 0.541 µM. The TGI (MOLT-4 leukemia) was 2.31 µM, the GI50 (SW-620 colon) was 0.794 µM and the TGI (SW-620 colon) was 2.16 µM. The GI50 (SF-295 CNS) was 1.57 µM, the TGI (SF-295 CNS) was 3.1 µM and the GI50 (HS 578T breast) was 0.67 µM. It also gave a TGI (HS 578T breast) of 3.96 µM, a GI50 (OVCAR-5 ovarian) of 1.5 µM and a TGI (OVCAR-5 ovarian) of 3 µM. It also gave a GI50 (SF-539 CNS) of 0.771 µM, a TGI (SF-539 CNS) of 2.15 µM and a GI50 (HCT-15 colon) of 1.79 µM. For the same molecule, the TGI (HCT-15 colon) was 3.42 µM, the GI50 (UACC-257 melanoma) was 0.412 µM and the TGI (UACC-257 melanoma) was 1.7 µM. For the same molecule, the GI50 (HOP-92 NSCLC) was 0.24 µM, the TGI (HOP-92 NSCLC) was 0.932 µM and the GI50 (UO-31 renal) was 1.82 µM. For the same molecule, the TGI (UO-31 renal) was 4.89 µM, the GI50 (SK-MEL-5 melanoma) was 1.1 µM and the TGI (SK-MEL-5 melanoma) was 2.31 µM. The GI50 (ACHN renal) was 1.82 µM and the TGI (ACHN renal) was 3.64 µM.

From PubChem BioAssay (NCI)
